# Measurements reported in the supplement of paper PMC6965134.
# ± gives the standard deviation of the averaged measurements.
# Assay: TIMS collisional cross section (CCS, N2) of the lipid ion; higher = larger ion cross section
# Conditions: sample type: HeLa; ionization mode: positive; one isomer drawn
row,Compound,TIMS collisional cross section
1,CCCCC/C=C/C/C=C/C/C=C/C/C=C/CCCC(=O)OC[C@H](COP(=O)([O-])OCC[N+](C)(C)C)OC(=O)CCC/C=C/C/C=C/C/C=C/C/C=C/CCCCC [PC 20:4_20:4] (ion (formula + adduct): [C48H80NO8P+H] 1+),292.7 Å²
2,CC/C=C\C/C=C\C/C=C\C/C=C\C/C=C\CCCC(=O)O[C@H](COC(=O)CCC/C=C\C/C=C\C/C=C\C/C=C\CCCCC)COP(=O)([O-])OCC[N+](C)(C)C [PC 20:4_20:5] (ion (formula + adduct): [C48H78NO8P+H] 1+),290.3 Å²
3,CC/C=C\C/C=C\C/C=C\C/C=C\C/C=C\C/C=C\CCC(=O)O[C@H](COC(=O)CCC/C=C\C/C=C\C/C=C\C/C=C\CCCCC)COP(=O)([O-])OCC[N+](C)(C)C [PC 20:4_22:6] (ion (formula + adduct): [C50H80NO8P+H] 1+),295.5 Å²
4,CC/C=C\C/C=C\C/C=C\C/C=C\C/C=C\C/C=C\CCC(=O)OC[C@H](COP(=O)([O-])OCC[N+](C)(C)C)OC(=O)CC/C=C\C/C=C\C/C=C\C/C=C\C/C=C\C/C=C\CC [PC 22:6_22:6] (ion (formula + adduct): [C52H80NO8P+H] 1+),298.6 Å²
5,CCCCCCCCCCCCCCCCOC[C@H](COP(=O)([O-])OCC[N+](C)(C)C)OC(=O)CCCCCCCCCCCCC [PC O- 16:0@_14:0] (ion (formula + adduct): [C38H78NO7P+H] 1+),280.8 Å²
6,CCCCCCC/C=C\CCCCCCCC(=O)O[C@H](COCCCCCCCCCCCCCCCC)COP(=O)([O-])OCC[N+](C)(C)C [PC O- 16:0@_17:1] (ion (formula + adduct): [C41H82NO7P+H] 1+),287.7 Å²
7,CCCCCCCC/C=C\CCCCCCCC(=O)O[C@H](COCCCCCCCCCCCCCCCC)COP(=O)([O-])OCC[N+](C)(C)C [PC O- 16:0@_18:1] (ion (formula + adduct): [C42H84NO7P+H] 1+),290.7 Å²
8,CCCCC/C=C/C/C=C/C/C=C/C/C=C/CCCC(=O)O[C@H](COCCCCCCCCCCCCCCCC)COP(=O)([O-])OCC[N+](C)(C)C [PC O- 16:0@_20:4] (ion (formula + adduct): [C44H82NO7P+H] 1+),290.4 Å²
9,CC/C=C\C/C=C\C/C=C\C/C=C\C/C=C\CCCC(=O)O[C@H](COCCCCCCCCCCCCCCCC)COP(=O)([O-])OCC[N+](C)(C)C [PC O- 16:0@_20:5] (ion (formula + adduct): [C44H80NO7P+H] 1+),287.7 Å²
10,CC/C=C\C/C=C\C/C=C\C/C=C\C/C=C\CCCCCC(=O)O[C@H](COCCCCCCCCCCCCCCCC)COP(=O)([O-])OCC[N+](C)(C)C [PC O- 16:0@_22:5] (ion (formula + adduct): [C46H84NO7P+H] 1+),294.4 Å²
11,CCCCCCCCCCCCCCCCCCOC[C@H](COP(=O)([O-])OCC[N+](C)(C)C)OC(=O)CCCCCCCCCCCCCCC [PC O- 18:0@_16:0] (ion (formula + adduct): [C42H86NO7P+H] 1+),293.3 Å²
12,CCCCC/C=C\C/C=C\C/C=C\C/C=C\CCCCCC(=O)O[C@H](COCCCCCCCCCCCCCCCCCC)COP(=O)([O-])OCC[N+](C)(C)C [PC O- 18:0@_22:4] (ion (formula + adduct): [C48H90NO7P+H] 1+),301.9 Å²
13,CCCCC/C=C\C/C=C\C/C=C\C/C=C\C/C=C\CCC(=O)O[C@H](COCCCCCCCCCCCCCCCCCC)COP(=O)([O-])OCC[N+](C)(C)C [PC O- 18:0@_22:5] (ion (formula + adduct): [C48H88NO7P+H] 1+),300.2 Å²
14,CC/C=C\C/C=C\C/C=C\C/C=C\C/C=C\C/C=C\CCC(=O)O[C@H](COCCCCCCCCCCCCCCCCCCCC)COP(=O)([O-])OCC[N+](C)(C)C [PC O- 20:0@_22:6] (ion (formula + adduct): [C50H90NO7P+H] 1+),305.7 Å²
15,CCCCCC/C=C\CCCCCCCC(=O)O[C@H](CO/C=C\CCCCCCCCCCCCCC)COP(=O)([O-])OCC[N+](C)(C)C [PC P- 16:0@_16:1] (ion (formula + adduct): [C40H78NO7P+H] 1+),281.9 Å²
16,CC/C=C\C/C=C\C/C=C\C/C=C\C/C=C\C/C=C\CCC(=O)O[C@H](CO/C=C\CCCCCCCCCCCCCC)COP(=O)([O-])OCC[N+](C)(C)C [PC P- 16:0@_22:6] (ion (formula + adduct): [C46H80NO7P+H] 1+),291.3 Å²
17,CCCCCCCCCCCCCC/C=C\OC[C@H](COP(=O)([O-])OCC[N+](C)(C)C)OC(=O)CCCCCCCCCCCCCCC [PC P- 16:0_16:0] (ion (formula + adduct): [C40H80NO7P+H] 1+),284.4 Å²
18,CCCCCC/C=C\CCCCCCCC(=O)O[C@H](CO/C=C\CCCCCCCCCCCCCCCC)COP(=O)([O-])OCC[N+](C)(C)C [PC P- 18:0@_16:1] (ion (formula + adduct): [C42H82NO7P+H] 1+),288.6 Å²
19,CC/C=C\C/C=C\C/C=C\C/C=C\C/C=C\C/C=C\CCC(=O)O[C@H](CO/C=C\CCCCCCCCCCCCCCCC)COP(=O)([O-])OCC[N+](C)(C)C [PC P- 18:0@_22:6] (ion (formula + adduct): [C48H84NO7P+H] 1+),297.1 ± 0.71 Å²
20,CC/C=C\C/C=C\C/C=C\C/C=C\C/C=C\CCCC(=O)O[C@H](CO/C=C\CCCCCCCCCCCCCCCCCC)COP(=O)([O-])OCC[N+](C)(C)C [PC P- 20:0@_20:5] (ion (formula + adduct): [C48H86NO7P+H] 1+),299.9 Å²
21,CC/C=C\C/C=C\C/C=C\C/C=C\C/C=C\C/C=C\CCC(=O)O[C@H](CO/C=C\CCCCCCCCCCCCCCCCCC)COP(=O)([O-])OCC[N+](C)(C)C [PC P- 20:0@_22:6] (ion (formula + adduct): [C50H88NO7P+H] 1+),304.8 Å²
22,CCCCCCCCCCCCCCCC(=O)OC[C@H](COP(=O)(O)OCCN)OC(=O)CCCCCCCCCCCCC [PE 16:0_14:0@] (ion (formula + adduct): [C35H70NO8P+H] 1+),267.4 Å²
23,CCCCCCCC/C=C\CCCCCCCC(=O)O[C@H](COC(=O)CCCCCCCCCCCCCCC)COP(=O)(O)OCCN [PE 16:0_18:1] (ion (formula + adduct): [C39H76NO8P+H] 1+),275.3 Å²

# Same assay, conditions: sample type: Liver; ionization mode: positive; one isomer drawn
row,Compound,TIMS collisional cross section
1,CC/C=C\C/C=C\C/C=C\C/C=C\CCCCCCC(=O)O[C@H](COCCCCCCCCCC/C=C\CCCCCCCC)COP(=O)([O-])OCC[N+](C)(C)C [PC O- 20:1@_20:4] (ion (formula + adduct): [C48H88NO7P+H] 1+),299.9 Å²
2,CCCCC/C=C\C/C=C\C/C=C\C/C=C\CCCCCC(=O)O[C@H](CO/C=C\CCCCCCCCCCCCCCCC)COP(=O)([O-])OCC[N+](C)(C)C [PC P- 18:0@_22:4] (ion (formula + adduct): [C48H88NO7P+H] 1+),300.4 Å²
3,CC/C=C\C/C=C\C/C=C\C/C=C\C/C=C\C/C=C\CCC(=O)O[C@H](COC(=O)CCCCCCCCCCCCCC)COP(=O)(O)OCCN [PE 15:0@_22:6] (ion (formula + adduct): [C42H72NO8P+H] 1+),275.7 Å²
4,CCCCCCCC/C=C\CCCCCCCC(=O)O[C@H](COC(=O)CCCCCCCCCCCCCCC)COP(=O)(O)OCCN [PE 16:0@_18:1] (ion (formula + adduct): [C39H76NO8P+H] 1+),275.7 Å²

# Same assay, conditions: sample type: plasma; ionization mode: positive; one isomer drawn
row,Compound,TIMS collisional cross section
1,CCCCC/C=C\C/C=C\C/C=C\CCCCCCC(=O)O[C@H](COC(=O)CCCCCCCCC/C=C\CCCCCCCC)COP(=O)([O-])OCC[N+](C)(C)C [PC 20:1@_20:3] (ion (formula + adduct): [C48H88NO8P+H] 1+),301.7 Å²
2,CCCCC/C=C\C/C=C\CCCCCCCC(=O)O[C@H](COCCCCCCCCCCCCCCCC)COP(=O)([O-])OCC[N+](C)(C)C [PC O- 16:0@_18:2] (ion (formula + adduct): [C42H82NO7P+H] 1+),287.3 Å²
3,CCCCC/C=C\C/C=C\C/C=C\C/C=C\CCCCCC(=O)O[C@H](COCCCCCCCCCCCCCCCC)COP(=O)([O-])OCC[N+](C)(C)C [PC O- 16:0@_22:4] (ion (formula + adduct): [C46H86NO7P+H] 1+),296.3 Å²
4,CC/C=C\C/C=C\C/C=C\C/C=C\CCCCCCC(=O)O[C@H](COCCCCCCCC/C=C\CCCCCC)COP(=O)([O-])OCC[N+](C)(C)C [PC O- 16:1@_20:4] (ion (formula + adduct): [C44H80NO7P+H] 1+),287.2 Å²
5,CCCCC/C=C\C/C=C\CCCCCCCC(=O)O[C@H](COCCCCCCCCCCCCCCCCCC)COP(=O)([O-])OCC[N+](C)(C)C [PC O- 18:0@_18:2] (ion (formula + adduct): [C44H86NO7P+H] 1+),294.7 Å²
6,CCCCC/C=C\C/C=C\C/C=C\C/C=C\CCCC(=O)O[C@H](COCCCCCCCC/C=C\CCCCCCCC)COP(=O)([O-])OCC[N+](C)(C)C [PC O- 18:1@_20:4] (ion (formula + adduct): [C46H84NO7P+H] 1+),294 Å²
7,CC/C=C\C/C=C\C/C=C\C/C=C\C/C=C\C/C=C\CCC(=O)O[C@H](COCCCCCCCCCCCCCCCCCCCC)COP(=O)([O-])OCC[N+](C)(C)C [PC O- 20:0@_22:6] (ion (formula + adduct): [C50H90NO7P+H] 1+),304.9 Å²
8,CCCCCCCC/C=C\CCCCCCCC(=O)O[C@H](CO/C=C\CCCCCCCCCCCCCC)COP(=O)([O-])OCC[N+](C)(C)C [PC P- 16:0@_18:1] (ion (formula + adduct): [C42H82NO7P+H] 1+),287.7 Å²
9,CCCCCCCCCCCCCC/C=C\OC[C@H](COP(=O)([O-])OCC[N+](C)(C)C)OC(=O)CCCCCCCCCCCCCCC [PC P- 16:0_16:0] (ion (formula + adduct): [C40H80NO7P+H] 1+),284.4 Å²
10,CCCCC/C=C\C/C=C\C/C=C\CCCCCCC(=O)O[C@H](CO/C=C\CCCCCCCCCCCCCCCC)COP(=O)([O-])OCC[N+](C)(C)C [PC P- 18:0@_20:3] (ion (formula + adduct): [C46H86NO7P+H] 1+),296.1 Å²
11,CCCCCCCC/C=C\CCCCCCCC(=O)O[C@H](COC(=O)CCCCCCCCCCCCCCC)COP(=O)(O)OCCN [PE 16:0@_18:1] (ion (formula + adduct): [C39H76NO8P+H] 1+),275.3 Å²
12,CC/C=C\C/C=C\C/C=C\C/C=C\C/C=C\C/C=C\CCC(=O)O[C@H](COC(=O)CCCCCCCCCCCCCCC)COP(=O)(O)OCCN [PE 16:0@_22:6] (ion (formula + adduct): [C43H74NO8P+H] 1+),279.1 Å²
